Reference: ChEMBL document CHEMBL5230127, “Research progress of mTOR inhibitors” (Eur J Med Chem, 2020)
Values belong to the compound of their own block, whether it stands above or below them.

Columns and labels:
[1] = molecular target: T1, Serine/threonine-protein kinase mTOR (Homo sapiens, UniProt P42345)
mTORC2 = mTORC2 (Homo sapiens, UniProt P42345); assay: Inhibition of mTORC2 in human LN-229 cells assessed as decrease in phosphorylation of AKT at Ser473 level incubated for 24 hrs by immunoblot assay; format: cell-based
Splenocyte = assay: Immunosuppressive activity in BDF1 mouse Splenocyte assessed as inhibition of concanavalin A induced T-cell proliferation incubated for 72 hrs by [3H]-thymidine incorporation based liquid scintillation counter analysis; format: functional
Cortical neurone [2] = assay: Neuroprotective activity in rat Primary cortical neuron assessed as increase in neurite outgrowth incubated for 72 hrs by cellomics array-scan assay; format: functional, cell-based
Cortical neurone [3] = assay: Neuroprotective activity in rat Primary cortical neuron assessed as increase in neuronal survival by measuring neurofilament incubated for 72 hrs by ELISA; format: functional, cell-based
[4] = molecular target: T1, Serine/threonine-protein kinase mTOR; assay: Binding affinity to mTOR (unknown origin) assessed as dissociation constant by measuring pKd
[5] = molecular target: T1, Serine/threonine-protein kinase mTOR; assay: Inhibition of mTOR (unknown origin) assessed as inhibition constant using GFP-4EBP1 as substrate by Lanthascreen based time resolved fluorescence based assay
[6] = molecular target: Phosphatidylinositol 4,5-bisphosphate 3-kinase catalytic subunit alpha isoform (Homo sapiens, UniProt P42336); assay: Inhibition of PIK3alpha (unknown origin) expressed in baculovirus assessed as inhibition constant using PIP2 as substrate in presence of [gamma-32P]ATP incubated for 30 mins by scintillation proximity assay
Chain of Phosphatidylinositol 4,5-bisphosphate 3-kinase catalytic subunit alpha isoform (P42336 whole entry, canonical isoform): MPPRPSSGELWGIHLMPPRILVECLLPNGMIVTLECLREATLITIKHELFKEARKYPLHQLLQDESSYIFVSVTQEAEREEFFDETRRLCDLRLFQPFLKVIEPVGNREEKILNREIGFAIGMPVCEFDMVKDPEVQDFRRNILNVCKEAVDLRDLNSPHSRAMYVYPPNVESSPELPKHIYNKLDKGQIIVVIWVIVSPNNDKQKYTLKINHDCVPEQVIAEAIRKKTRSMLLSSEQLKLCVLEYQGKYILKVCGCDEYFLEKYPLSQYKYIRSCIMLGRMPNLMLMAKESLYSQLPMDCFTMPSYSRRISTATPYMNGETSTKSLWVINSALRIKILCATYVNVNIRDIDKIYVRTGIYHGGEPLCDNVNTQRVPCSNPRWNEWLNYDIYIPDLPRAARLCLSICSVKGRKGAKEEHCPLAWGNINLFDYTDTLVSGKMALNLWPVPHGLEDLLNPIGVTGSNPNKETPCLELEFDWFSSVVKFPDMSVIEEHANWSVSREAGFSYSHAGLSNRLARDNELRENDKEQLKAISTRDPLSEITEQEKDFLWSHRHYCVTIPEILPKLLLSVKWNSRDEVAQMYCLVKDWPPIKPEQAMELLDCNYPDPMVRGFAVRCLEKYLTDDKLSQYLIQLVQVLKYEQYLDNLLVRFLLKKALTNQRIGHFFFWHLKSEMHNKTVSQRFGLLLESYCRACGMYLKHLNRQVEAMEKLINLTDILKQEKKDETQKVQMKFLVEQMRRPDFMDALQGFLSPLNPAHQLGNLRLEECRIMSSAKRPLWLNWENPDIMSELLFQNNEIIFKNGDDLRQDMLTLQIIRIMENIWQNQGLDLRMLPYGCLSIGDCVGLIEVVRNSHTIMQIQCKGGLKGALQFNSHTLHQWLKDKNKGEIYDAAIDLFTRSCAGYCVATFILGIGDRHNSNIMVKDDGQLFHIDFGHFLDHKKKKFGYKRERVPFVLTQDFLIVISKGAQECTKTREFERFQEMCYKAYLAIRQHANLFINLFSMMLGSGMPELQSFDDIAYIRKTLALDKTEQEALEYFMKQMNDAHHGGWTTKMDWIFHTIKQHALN

[7] = Inhibition of DNAPK in human HCT-116 cells preincubated for 1 hr followed by UV radiation and measured after 1 hr by Bradford assay based immunoblotting analysis; format: cell-based
[8] = molecular target: Serine/threonine-protein kinase mTOR (Rattus norvegicus, UniProt P42346); assay: Inhibition of mTOR in rat brain by […] immunoblot assay; format: tissue-based

SMILES: COc1cccc2cc(-c3nc(C4CCC(C(=O)O)CC4)n4ncnc(N)c34)[nH]c12 (stereo unspecified)
- IC50 [1]: 4 nM

- IC50 (mTORC2): 310 nM
SMILES: CC1CN(C(=O)Nc2ccc(Cl)c(Cl)c2)/C(=N/c2cccc(F)c2)S1 (stereo unspecified)

SMILES: CO[C@@H]1C[C@H](C[C@@H](C)[C@@H]2CC(=O)[C@H](C)/C=C(\C)[C@@H](O)[C@@H](OC)C(=O)[C@H](C)C[C@H](C)/C=C/C=C/C=C(\C)CC[C@@H]3CC[C@@H](C)[C@@](O)(O3)C(=O)C(=O)N3CCCC[C@H]3C(=O)O2)CC[C@H]1O
- IC50 (Splenocyte): 2 nM

SMILES: CO[C@H]1C[C@@H]2CC[C@@H](C)[C@@](O)(O2)C(=O)C(=O)N2CCCC[C@H]2C(=O)O[C@H]([C@H](C)C[C@@H]2CC[C@@H](O)[C@H](OC)C2)CC(=O)[C@H](C)/C=C(\C)[C@@H](O)[C@@H](OC)C(=O)[C@H](C)C[C@H](C)C2C=CC(/C=C/1C)ON2c1ccccc1
- EC50 (Cortical neurone [2]): 420 nM
- EC50 (Cortical neurone [3]): 700 nM

- Kd [4]: 204 nM
SMILES: CNc1ncnn2c(C3CCC(C(=O)O)CC3)nc(-c3cc4cccc(OC5CCOC5)c4[nH]3)c12 (stereo unspecified)

SMILES: CO[C@@H]1C[C@H](C[C@@H](C)[C@@H]2CC(=O)[C@H](C)/C=C(\C)[C@@H](O)[C@@H](OC)C(=O)[C@H](C)C[C@H](C)/C=C/C=C/C=C(\C)[C@@H](OCc3ccccc3)C[C@@H]3CC[C@@H](C)[C@@](O)(O3)C(=O)C(=O)N3CCCC[C@H]3C(=O)O2)CC[C@H]1O
- IC50 (Splenocyte): 6 nM

SMILES: O=C(O[C@@H]1Cc2c(O)cc(O)cc2O[C@@H]1c1cc(O)c(O)c(O)c1)c1cc(O)c(O)c(O)c1 [EPIGALOCATECHIN GALLATE]
- Ki [5]: 320 nM
- Ki [6]: 380 nM

- IC50 [7]: < 10 nM
SMILES: Nc1ccc(-c2ccc3ncc4ccc(=O)n(-c5cccc(C(F)(F)F)c5)c4c3c2)cn1

SMILES: COC[C@H]1OC(=O)c2coc3c2[C@@]1(C)C1=C(C3=O)[C@@H]2CCC(=O)[C@@]2(C)C[C@H]1OC(C)=O [WORTMANNIN]
- IC50 [8]: 300 nM
